Results published in patent publication US9365502B2, “Neuroactive substituted cyclopenta[b]phenanthrenes as modulators for GABA type-A receptors” (priority 2013, dated 2016).
Where two headings read alike, the source gives them in different places.

Tests used:
[1] = target: picrotoxin binding site on GABAA receptors; experiment: [35S]-TBPS displacement (inhibition of [35S]-TBPS binding); settings: mean ± SEM, duplicate experiments performed in triplicate
Experimental: The IC50 values for non-competitive displacers of [^35S]-TBPS from the picrotoxin binding site on GABAA receptors are reported in Table 1.
Results presented are from duplicate experiments performed in triplicate. Error limits are calculated as standard error of the mean. Methods used are known in the art (see Jiang, X., et al., Neurosteroid analogues. 9. Conformationally constrained pregnanes: structure-activity studies of 13,24-cyclo-18,21-dinorcholane analogues of the GABA modulatory and anesthetic steroids (3α,5α)- and […]. J. Med. Chem., 46: 5334-48 (2003)—the contents of which are hereby incorporated by reference in their entirety).

[2] = target: rat α1β2γ2L type GABAA receptors expressed in Xenopus laevis oocytes (Rattus norvegicus (Rat), UniProt P62813+P63138, INS375LLRMFSFK); experiment: Potentiation of GABA-mediated chloride currents, oocyte electrophysiology; type: cell-based; settings: ± SEM; for Oocyte electrophysiology 0.1 μM (ratio of currents in presence/absence of compound): 0.1 μM compound; for Oocyte electrophysiology 0.1 μM (ratio of currents in presence/absence of compound) / Oocyte electrophysiology 1.0 μM (ratio of currents in presence/absence of compound) / Oocyte electrophysiology 10 μM (ratio of currents in presence/absence of compound): 2 μM GABA, N>=4; for Oocyte electrophysiology 1.0 μM (ratio of currents in presence/absence of compound): 1.0 μM compound; for Oocyte electrophysiology (gating) 10 μM (ratio of compound only current/2 μM GABA current): 10 μM compound in the absence of GABA; for Oocyte electrophysiology 10 μM (ratio of currents in presence/absence of compound): 10 μM compound
Experimental: The compounds of the present disclosure were evaluated for the ability to potentiate chloride currents mediated by 2 μM GABA at rat α1β2γ2L type GABAA receptors expressed in Xenopus laevis oocytes and the results are shown in Table 2.
The GABA concentration used for the control response was 2 μM. Each compound was evaluated on at least four different oocytes at the concentrations indicated, and the results reported are the ratio of currents measured in the presence/absence of added compound. Gating represents direct current gated by 10 μM compound in the absence of GABA, and this current is reported as the ratio of compound only current/2 μM GABA current. Error limits are calculated as standard error of the mean (N≧4). Methods used are known in the art (see Jiang, X., et al.).

[3] = system: Tadpole; experiment: Tadpole loss of righting (LRR) and loss of swimming (LSR) reflexes; type: in vivo; settings: ± SEM
Experimental: Table 3 discloses the anesthetic effects of the compounds of the present disclosure. In particular, the anesthetic effect of the compounds of the present disclosure on Loss of Righting Reflex (LRR) and Loss of Swimming Reflex (LSR).
Methods used are known in the art (see Jiang, X., et al.). Error limits are calculated as standard error of the mean (N=10 or more animals at each of five or more different concentrations).

[4] = loss of righting reflex, read-out: Tadpole LRR EC50
[5] = loss of swimming reflex, read-out: Tadpole LSR EC50

Row | SMILES | IC50 [1] [nM] | Oocyte electrophysiology 0.1 μM (ratio of currents in presence/absence of compound) [2] | Oocyte electrophysiology 1.0 μM (ratio of currents in presence/absence of compound) [2] | Oocyte electrophysiology (gating) 10 μM (ratio of compound only current/2 μM GABA current) [2] | Oocyte electrophysiology 10 μM (ratio of currents in presence/absence of compound) [2] | EC50 [3, 4] [nM] | EC50 [3, 5] [nM]
1 | C[C@@]12C[C@@H]3CC[C@@H]4C[C@H](O)CC[C@@H]4[C@H]3C[C@H]1CCC2=O [MQ-51] | 5860 | 0.97 ± 0.03 | 1.02 ± 0.02 | 0.08 ± 0.08 | 1.59 ± 0.11 | > 10000 | > 10000
2 | C[C@@]12CC[C@H](O)C[C@H]1CC[C@@H]1C[C@]3(C)C(C#N)=CCC3CC12 (stereo partly drawn) [MQ-86] | 43 ± 3 | 2.25 ± 0.11 | 10.95 ± 1.05 | 0.16 ± 0.03 | 19.64 ± 2.06 | 380 ± 50 | 550 ± 10
3 | C[C@@]12CC[C@@H](O)C[C@@H]1CC[C@H]1C[C@@]3(C)[C@H](CC[C@@]34CO4)C[C@@H]12 [MQ-85] | 29 ± 7 | 2.08 ± 0.23 | 9.59 ± 1.77 | 0.10 ± 0.02 | 17.18 ± 3.31 | 350 ± 20 | 550 ± 10
4 | C[C@@]12CC3CCC4C[C@H](O)CCC4C3CC1CC[C@H]2C#N (stereo partly drawn) [MQ-49] | 1580 | 0.92 ± 0.01 | 1.02 ± 0.01 | 0.02 ± 0.01 | 1.86 ± 0.06 | 2400 ± 760 | 5480 ± 120
5 | C[C@]12C[C@H]3CC[C@@H]4C[C@@H](O)CC[C@H]4[C@@H]3C[C@@H]1CC[C@@H]2C#N [MQ-38] | 52 ± 7 | 1.51 ± 0.19 | 6.92 ± 1.29 | 0.51 ± 0.48 | 12.50 ± 1.98 | 380 ± 60 | 870
6 | C[C@@]12CC[C@H](O)C[C@@H]1CC[C@@H]1C[C@]3(C)C(=O)CCC3C[C@H]12 (stereo partly drawn) [MQ-83] | 748 ± 103 | 0.85 ± 0.07 | 1.03 ± 0.06 | 0.1 ± 0.2 | 6.35 ± 0.81 | 2190 ± 440 | 5480 ± 120
7 | C[C@@]12CC[C@H](O)C[C@H]1CC[C@@H]1C[C@@]3(C)C(CC[C@@H]3C#N)CC12 (stereo partly drawn) [MQ-87] | 14 ± 2 | 1.93 ± 0.14 | 10.95 ± 0.55 | 0.04 ± 0.01 | 16.10 ± 0.87 | 100 ± 10 | 330
8 | C[C@]12C[C@H]3CC[C@@H]4C[C@@H](O)CC[C@H]4[C@@H]3C[C@@H]1CC/C2=C\C#N [MQ-32] | 147 ± 9 | 1.64 ± 0.02 | 3.21 ± 0.13 | 0.12 ± 0.01 | 8.77 ± 1.65 | 360 ± 130 | 1070
9 | C[C@]12C[C@H]3CC[C@@H]4C[C@@H](O)CCC4C3CC1CC[C@@]21CO1 (stereo partly drawn) [MQ-37] | 46 ± 4 | 1.91 ± 0.17 | 16.12 ± 2.24 | 0.54 ± 0.44 | 27.57 ± 5.45 | 160 | 540 ± 10
